Experiments:
[1] = tested on: IPOHE = ivyleaf morningglory (Ipomoea hederacea); test: Postemergence herbicidal activity, ivyleaf morningglory; type: in vivo; conditions: post-emergence, 336 h, post-emergent, rate 140 g ai/ha, visual score after 14 days (0 no injury, 100 complete kill), read-out: % Growth Reduction IPOHE
Experimental: (§1) Evaluation of Postemergence Herbicidal Activity
(§2) Seeds or nutlets of the desired test plant species were planted in Sun Gro MetroMix® 306 planting mixture, which typically has a pH of 6.0 to 6.8 and an organic matter content of about 30 percent, in plastic pots with a surface area of 64 square centimeters. When required to ensure good germination and healthy plants, a fungicide treatment and/or other chemical or physical treatment was applied. The plants were grown for 7-21 days in a greenhouse with an approximate 15 hour photoperiod which was maintained at about 23-29° C. during the day and 22-28° C. during the night. Nutrients and water were added on a regular basis and supplemental lighting was provided with overhead metal halide 1000-Watt lamps as necessary. The plants were employed for testing when they reached the first or second true leaf stage.
(§3) A weighed amount, determined by the highest rate to be tested, of each test compound was placed in a 25 mL glass vial and was dissolved in 4 mL of a 97:3 v/v (volume/volume) mixture of acetone and dimethyl sulfoxide (DMSO) to obtain concentrated stock solutions. […] The concentrated stock solutions obtained were diluted with 20 mL of an aqueous mixture containing acetone, water, isopropyl alcohol, DMSO, Atplus 411F crop oil concentrate, and Triton® X-155 surfactant in a 48.5:39:10:1.5:1.0:0.02 v/v ratio to obtain spray solutions containing the highest application rates. Additional application rates were obtained by serial dilution of 12 mL of the high rate solution into a solution containing 2 mL of 97:3 (v/v) mixture of acetone and dimethyl sulfoxide (DMSO) and 10 mL of an aqueous mixture containing acetone, water, isopropyl alcohol, DMSO, Atplus 411F crop oil concentrate, and Triton X-155 surfactant in a 48.5:39:10:1.5:1.0:0.02 (v/v) ratio to obtain 1/2 ×, 1/4 ×, 1/8× and 1/16× rates of the high rate. Compound requirements are based upon a 12 mL application volume at a rate of 187 L/ha. Formulated compounds were applied to the plant material with an overhead Mandel track sprayer equipped with a 8002E nozzles calibrated to deliver 187 L/ha over an application area of 0.503 square meters at a spray height of 18 inches (43 cm) above the average plant canopy height. Control plants were sprayed in the same manner with the solvent blank.
(§4) The treated plants and control plants were placed in a greenhouse as described above and watered by sub-irrigation to prevent wash-off of the test compounds. After 14 days, the condition of the test plants as compared with that of the untreated plants was determined visually and scored on a scale of 0 to 100 percent where 0 corresponds to no injury and 100 corresponds to complete kill
(§5) By applying the well-accepted probit analysis as described by J. Berkson in Journal of the […], 48, 565 (1953) and by D. Finney in “Probit Analysis” Cambridge University Press (1952), the above data can be used to calculate GR50 and GR80 values, which are defined as growth reduction factors that correspond to the effective dose of herbicide required to kill or control 50 percent or 80 percent, respectively, of a target plant.

[2] = tested on: AMARE = redroot pigweed (Amaranthus retroflexus); test: Postemergence herbicidal activity, redroot pigweed; type: in vivo; conditions: post-emergence, 336 h, post-emergent, rate 140 g ai/ha, visual score after 14 days (0 no injury, 100 complete kill), read-out: % Growth Reduction AMARE
Experimental: as §1, §2, §3, §4, §5

[3] = tested on: ABUTH = velvetleaf (Abutilon theophrasti); test: Postemergence herbicidal activity, velvetleaf; type: in vivo; conditions: post-emergence, 336 h, post-emergent, rate 140 g ai/ha, visual score after 14 days (0 no injury, 100 complete kill), read-out: % Growth Reduction ABUTH
Experimental: as §1, §2, §3, §4, §5

[4] = tested on: ECHCG = barnyardgrass (Echinochloa crus-galli); test: Postemergence herbicidal activity, barnyardgrass; type: in vivo; conditions: post-emergence, 336 h, post-emergent, rate 140 g ai/ha, visual score after 14 days (0 no injury, 100 complete kill), read-out: % Growth Reduction ECHCG
Experimental: as §1, §2, §3, §4, §5

[5] = tested on: EPHHL = wild poinsettia (Euphorbia heterophylla); test: Postemergence herbicidal activity, wild poinsettia; type: in vivo; conditions: post-emergence, 336 h, post-emergent, rate 140 g ai/ha, visual score after 14 days (0 no injury, 100 complete kill), read-out: % Growth Reduction EPHHL
Experimental: as §1, §2, §3, §4, §5

[6] = tested on: HELAN = sunflower (Helianthus annuus); test: Postemergence herbicidal activity, sunflower; type: in vivo; conditions: post-emergence, 336 h, post-emergent, rate 140 g ai/ha, visual score after 14 days (0 no injury, 100 complete kill), read-out: % Growth Reduction HELAN
Experimental: as §1, §2, §3, §4, §5

[7] = tested on: CHEAL = lambsquarters (Chenopodium album); test: Postemergence herbicidal activity, lambsquarters; type: in vivo; conditions: post-emergence, 336 h, post-emergent, rate 140 g ai/ha, visual score after 14 days (0 no injury, 100 complete kill), read-out: % Growth Reduction CHEAL
Experimental: as §1, §2, §3, §4, §5

SMILES | pest or weed control at 140 g/ha [1] [%] | pest or weed control at 140 g/ha [2] [%] | pest or weed control at 140 g/ha [3] [%] | melting point [°C] | pest or weed control at 140 g/ha [4] [%] | pest or weed control at 140 g/ha [5] [%] | pest or weed control at 140 g/ha [6] [%] | pest or weed control at 140 g/ha [7] [%]
COC(=O)c1nc(-c2ccc(Cl)c(OC)c2F)nc(N)c1/C=C/[Si](C)(C)C [Compound 2, (E)-methyl 6-amino-2-(4-chloro-2-fluoro-3-methoxyphenyl)-5-(2-(trimethylsilyl)vinyl)-pyrimidine-4-carboxylate] | 90 | 100 | 98 | 161 to 163 | 98 | 100 | 100 | –
C[Si](C)(C)/C=C/c1c(N)nc(-c2ccc(Cl)cc2F)nc1C(=O)O [Compound 7, (E)-6-amino-2-(4-chloro-2-fluorophenyl)-5-(2-(trimethylsilyl)vinyl)pyrimidine-4-carboxylic acid] | 70 | 100 | 100 | – | 80 | 100 | 90 | 100
COC(=O)c1nc(-c2ccc(Cl)cc2F)nc(N)c1/C=C/[Si](C)(C)C [Compound 3, (E)-methyl 6-amino-2-(4-chloro-2-fluorophenyl)-5-(2-(trimethylsilyl)vinyl)pyrimidine-4-carboxylate] | 70 | 100 | 100 | – | 0 | 100 | 90 | 100
COc1c(Cl)ccc(-c2nc(N)c(/C=C/[Si](C)(C)C)c(C(=O)O)n2)c1F [Compound 6, (E)-6-amino-2-(4-chloro-2-fluoro-3-methoxyphenyl)-5-(2-(trimethylsilyl)vinyl)pyrimidine-4-carboxylicacid] | 95 | 100 | 100 | 108 to 110 | 100 | 100 | 100 | 100
COC(=O)c1nc(-c2ccc(Cl)cc2)c(F)c(N)c1/C=C/[Si](C)(C)C [Compound 12, (E)-Methyl 4-amino-6-(4-chlorophenyl)-5-fluoro-3-(2-(trimethylsilyl)vinyl)picolinate] | 0 | 75 | 90 | 113 to 115 | 0 | 80 | 90 | 100
C[Si](C)(C)/C=C/c1c(C(=O)O)nc(-c2ccc(Cl)cc2)c(F)c1N [Compound 15, (E)-4-amino-6-(4-chlorophenyl)-5-fluoro-3-(2-(trimethylsilyl)vinyl)picolinic acid] | 70 | 100 | 80 | – | 80 | 90 | 90 | 90
C[Si](C)(C)/C=C/c1c(N)nc(-c2ccc(Cl)c(F)c2F)nc1C(=O)O [Compound 5, (E)-6-amino-2-(4-chloro-2,3-difluorophenyl)-5-(2-(trimethylsilyl)vinyl)pyrimidine-4-carboxylic acid] | 60 | 90 | 100 | – | 50 | 100 | 90 | 100

— patent US8658568B2, “6-amino-2-substituted-5-vinylsilylpyrimidine-4-carboxylic acids and esters and 4-amino-6-substituted-3-vinylsilylpyridine-2-carboxylic acids and esters as herbicides” (Dow AgroSciences, LLC., priority 2011, dated 2014)
